Test results published in article PMC8119466, “A screen of FDA-approved drugs identifies inhibitors of protein tyrosine phosphatase 4A3 (PTP4A3 or PRL-3)” (Scientific Reports, 2021).
Structures can show the parent of a compound that is named as a salt. Where two headings read alike, the source gives them in different places.

How the values were obtained:
Format in all cases: biochemical
[1] = target: T1, recombinant PRL-1 (Homo sapiens, UniProt Q93096); assay: In vitro phosphatase assay (DiFMUP hydrolysis), PRL-1; note: test concentration or dose not given here
T1 construct: 6xHis (N, cleaved yes); made in house; host or cells: E. coli One Shot BL21 Star
T1 sequence (Q93096 1-173): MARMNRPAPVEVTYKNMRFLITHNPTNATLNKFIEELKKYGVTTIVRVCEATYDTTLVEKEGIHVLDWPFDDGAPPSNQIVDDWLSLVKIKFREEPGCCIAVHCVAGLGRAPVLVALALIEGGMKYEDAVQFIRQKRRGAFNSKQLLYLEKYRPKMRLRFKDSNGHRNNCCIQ

[2] = target: T2, recombinant PRL-2 (Homo sapiens, UniProt Q12974); assay: In vitro phosphatase assay (DiFMUP hydrolysis), PRL-2;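 note: PRL-2 activity read as DiFMUP hydrolysis after 20 min at room temperature with drug, enzyme first pre-reduced at 4 °C for 20 min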
T2 construct: 6xHis (N, cleaved yes); made in house; host or cells: E. coli One Shot BL21 Star
T2 sequence (Q12974 1-167): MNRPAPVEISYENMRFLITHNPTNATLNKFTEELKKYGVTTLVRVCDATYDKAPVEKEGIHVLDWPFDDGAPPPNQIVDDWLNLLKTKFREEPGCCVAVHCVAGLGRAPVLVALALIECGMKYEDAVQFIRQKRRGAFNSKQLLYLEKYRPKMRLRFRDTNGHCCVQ

[3] = target: T3, recombinant PRL-3 (Homo sapiens, UniProt O75365); assay: In vitro phosphatase assay (DiFMUP hydrolysis), PRL-3; note: test concentration or dose not given here
T3 construct: 6xHis (N, cleaved yes); made in house; host or cells: E. coli One Shot BL21 Star

[4] = FDA-approved drug screen, compared to DMSO
[5] = FDA-approved drug screen, activity compared to DMSO

T3 sequence (O75365 whole entry): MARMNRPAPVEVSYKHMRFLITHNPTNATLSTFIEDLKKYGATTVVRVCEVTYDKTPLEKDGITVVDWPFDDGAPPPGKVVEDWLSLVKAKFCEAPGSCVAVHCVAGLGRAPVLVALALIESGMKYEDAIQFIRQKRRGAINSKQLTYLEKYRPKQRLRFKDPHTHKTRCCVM

| % Phosphatase Activity (compared to DMSO) PRL-1 [1, 4] [%] | % Phosphatase Activity (compared to DMSO) PRL-2 [2, 4] [%] | % Phosphatase Activity (compared to DMSO) PRL-3 [3, 4] [%] | Structure (SMILES) | further results |
| --- | --- | --- | --- | --- |
| 108 | 123 | 97 | CCCCCOC(=O)Nc1nc(=O)n([C@@H]2O[C@H](C)[C@@H](O)[C@H]2O)cc1F [Capecitabine] |  |
|  |  |  | CCC(COC(=O)c1cc(OC)c(OC)c(OC)c1)(c1ccccc1)N(C)C (stereo not drawn) [Trimebutine] | % Phosphatase Activity (compared to DMSO) PRL-1 [1, 5]: 90%; % Phosphatase Activity (compared to DMSO) PRL-2 [2, 5]: 106%; % Phosphatase Activity (compared to DMSO) PRL-3 [3, 5]: 84% |
| 105 | 106 | 96 | CCn1cc(C(=O)O)c(=O)c2cnc(N3CCCC3)nc21 [Piromidic Acid] |  |
|  |  |  | O=C(O)c1cc(/N=N/c2ccc(S(=O)(=O)Nc3ccccn3)cc2)ccc1O [Sulfasalazine] | % Phosphatase Activity (compared to DMSO) PRL-1 [1, 5]: 67%; % Phosphatase Activity (compared to DMSO) PRL-2 [2, 5]: 50%; % Phosphatase Activity (compared to DMSO) PRL-3 [3, 5]: 59% |
| 62 | 75 | 62 | CC1=CC(=O)c2ccccc2C1=O [Menadione] |  |
| 121 | 109 | 92 | Cn1cc(CNCC2CCN(c3ncc(C(=O)NO)cn3)CC2)c2ccccc21 [Quisinostat (JNJ-26481585)] |  |
| 87 | 79 | 66 | CC(=O)O[C@H]1C[C@@]2(C)[C@@H](C[C@@H](O)[C@H]3[C@@]4(C)CC[C@@H](O)[C@@H](C)[C@@H]4CC[C@@]32C)/C1=C(\CCC=C(C)C)C(=O)O [Fusidate Sodium] |  |
| 98 | 101 | 98 | CN(C)[C@@H]1C(O)=C(C(N)=O)C(=O)[C@@]2(O)C(O)=C3C(=O)c4c(O)cccc4[C@@](C)(O)[C@H]3[C@H](O)[C@@H]12 [Oxytetracycline Dihydrate] |  |
| 100 | 103 | 75 | Cn1c(=O)c2c(ncn2CC(O)CO)n(C)c1=O (stereo not drawn) [Dyphylline] |  |
| 95 | 100 | 96 | O=C(CCNNC(=O)c1ccncc1)NCc1ccccc1 [Nialamide] |  |
|  |  |  | OCCOc1ccc(/C(=C(/CCCl)c2ccccc2)c2ccccc2)cc1 [Ospemifene] | % Phosphatase Activity (compared to DMSO) PRL-1 [1]: 96%; % Phosphatase Activity (compared to DMSO) PRL-2 [2]: 109%; % Phosphatase Activity (compared to DMSO) PRL-3 [3]: 81% |
| 68 | 62 | 57 | O=C(N/N=C/c1ccc([N+](=O)[O-])o1)c1ccc(O)cc1 [Nifuroxazide] |  |
|  |  |  | CCCc1nn(C)c2c(=O)[nH]c(-c3cc(S(=O)(=O)N4CCN(C)CC4)ccc3OCC)nc12.CS(=O)(=O)O [Sildenafil Mesylate] | % Phosphatase Activity (compared to DMSO) PRL-1 [1, 5]: 94%; % Phosphatase Activity (compared to DMSO) PRL-2 [2, 5]: 79%; % Phosphatase Activity (compared to DMSO) PRL-3 [3, 5]: 94% |
| 114 | 115 | 83 | O=C(C[S+]([O-])Cc1ccco1)NC/C=C\COc1cc(CN2CCCCC2)ccn1 (stereo not drawn) [Lafutidine] |  |
| 91 | 93 | 79 | CC[C@H]1OC(=O)[C@H](C)[C@@H](O[C@H]2C[C@@](C)(OC)[C@@H](O)[C@H](C)O2)[C@H](C)[C@@H](O[C@@H]2O[C@H](C)C[C@H](N(C)C)[C@H]2O)[C@](C)(O)C[C@@H](C)C(=O)[C@H](C)[C@@H](O)[C@]1(C)O [Erythromycin] |  |
| 99 | 106 | 84 | NC(=O)C1CCCc2c1[nH]c1ccc(Cl)cc21 (stereo not drawn) [EX 527 (Selisistat)] |  |
| 90 | 83 | 79 | COC(=O)Nc1nc2ccc(C(=O)c3ccccc3)cc2[nH]1 [Mebendazole] |  |
| 98 | 95 | 70 | C[C@](N)(Cc1ccc(O)c(O)c1)C(=O)O [Methyldopa] |  |
| 68 | 30 | 78 | CC1(C)CCC(CN2CCN(c3ccc(C(=O)NS(=O)(=O)c4ccc(NCC5CCOCC5)c([N+](=O)[O-])c4)c(Oc4cnc5[nH]ccc5c4)c3)CC2)=C(c2ccc(Cl)cc2)C1 [ABT-199 (GDC-0199)] |  |
| 103 | 92 | 90 | CCC(=O)O[C@]1(C(=O)SCF)[C@H](C)C[C@H]2[C@@H]3C[C@H](F)C4=CC(=O)C=C[C@]4(C)[C@@]3(F)[C@@H](O)C[C@@]21C [Fluticasone propionate] |  |
| 100 | 78 | 72 | C[C@]12CCC3=C4CCC(=O)C=C4CC[C@H]3[C@@H]1CC[C@@]2(O)CC#N [Dienogest] |  |

| Structure (SMILES) | % Phosphatase Activity (compared to DMSO) PRL-1 [1, 4] [%] | % Phosphatase Activity (compared to DMSO) PRL-2 [2, 4] [%] | % Phosphatase Activity (compared to DMSO) PRL-3 [3, 4] [%] | further results |
| --- | --- | --- | --- | --- |
| O=c1ccc2ccc(OCCCCN3CCN(c4cccc5sccc45)CC3)cc2[nH]1 [Brexpiprazole] | 97 | 115 | 92 |  |
| COc1ccnc(C[S+]([O-])c2nc3ccc(OC(F)F)cc3[nH]2)c1OC (stereo not drawn) [Pantoprazole sodium] | 97 | 98 | 88 |  |
| CC(=O)Oc1ccccc1C(=O)O [Aspirin] | 126 | 110 | 102 |  |
| CC(=O)[C@H]1CC[C@H]2[C@@H]3CC=C4C[C@@H](O)CC[C@]4(C)[C@H]3CC[C@]12C [Pregnenolone] | 89 | 101 | 88 |  |
| O=C1CC2(CCCC2)CC(=O)N1CCCCN1CCN(c2ncccn2)CC1 [Buspirone HCl] | 89 | 91 | 75 |  |
| Cc1ccc(-n2nc(C(C)(C)C)cc2NC(=O)Nc2ccc(OCCN3CCOCC3)c3ccccc23)cc1 [BIRB 796 (Doramapimod)] | 108 | 106 | 98 |  |
| C=CC[N+]1([C@H]2C[C@H]3[C@@H]4CC[C@H]5C[C@H](O)[C@@H](N6CCOCC6)C[C@]5(C)[C@H]4CC[C@]3(C)[C@H]2OC(C)=O)CCCC1 [Rocuronium Bromide] | 100 | 106 | 90 |  |
| CC(C)NCC(O)COc1cccc2ccccc12.Cl (stereo not drawn) [Propranolol HCl] | 95 | 128 | 70 |  |
